{"source": "patent US20240269120A1", "about": "“Method for Treating an Autoimmune and Inflammatory Disease” (Cellestia Biotech AG, priority 2021, published 2024)", "key": {"IFNG": {"tested_on": "IFNG", "experiment": "Cytokine analysis in allogeneic bone marrow transplant (LEGENDplex): IFNG", "format": "in vivo, mouse", "settings": "allo-BM+splenocyte transplanted mice, day 36, vs vehicle; FIG. 6", "procedure": "Allogeneic Bone marrow transplant: Recipient Balb/c mice were irradiated twice 3.75Gy (T=0 and T=4 h) in an X-ray source irradiator before transplantation at T=8 h. Treatment with antibiotics (Nopil) and analgesic (Dafalgan) was supplemented to drinking water 4 days before injection. Irradiated recipient Balb/c mice were transplanted with 5 million T cell depleted bone marrow+1 million splenocytes. Allogeneic recipient animals were treated with vehicle or 6-(4-tert-butylphenoxy)pyridin-3-amine subcutaneously at 20 mg/kg for two days immediately after allo-BM transplant, given a 10 days treatment holiday to recover body weight loss due to whole body irradiation and then treatment continued at 20 mg/kg. […] Animals were monitored for symptoms of GvHD development (severe body weight loss, alopecia and diarrhea.\nCytokine analysis in allogeneic Bone marrow transplant: The recipient animals were bled on day 36 and blood plasma was extracted to determine inflammatory cytokine concentration (IFNγ, IL-6, IL-17a) by LEGENDplex™ multiplexed assay."}, "IL-10": {"tested_on": "IL-10", "experiment": "Cytokine profiling in human patient plasma (MSD): IL-10", "format": "in vivo", "settings": "vs baseline", "procedure": "(§1) Cytokine profiling in human plasma samples: Plasma samples from patients treated with 6-(4-tert-butylphenoxy)pyridin-3-amine were collected and stored at −80° C. until analysed. Cytokine and chemokine profiling was performed using MesoScale Discovery (MSD) platform and three assay panels: 1) Pro-inflammatory panel human, 2) Human IL-6 assay S-Plex, 3) Human IL-10 assay S-Plex."}, "IL-6": {"tested_on": "IL-6", "experiment": "Cytokine profiling in human patient plasma (MSD): IL-6", "format": "in vivo", "settings": "human patients, day 3 on treatment vs baseline pre-treatment", "procedure": "as §1"}}, "data": [{"molecule": "CC(C)(C)c1ccc(Oc2ccc(N)cn2)cc1", "note": "[6-(4-tert-butylphenoxy)pyridin-3-amine]", "values": [{"measurement": "IFNG in blood plasma", "setting": "IFNG", "result": "downregulation"}, {"measurement": "Percentage upregulation of IL-10 in blood plasma", "setting": "IL-10", "result": 60, "unit": "%"}, {"measurement": "Percentage downregulation of IL-6 in blood plasma", "setting": "IL-6", "result": "57% (day 3 on treatment)"}]}]}
